Laboratory results: patent US10787448B2, “Indolizino [3,2-C] quinoline-based fluorescent probe” (SEOUL NATIONAL UNIVERSITY R & DB FOUNDATION, priority 2015, dated 2020)

Experiment: Analysis of optical characteristics (absorption, fluorescence emission, quantum yield) in solvents
Format: physicochemical
Conditions: for Fluorescence Emission Intensity / Peak emission wavelength λmax em(nm) / Relative fluorescence Emission Intensitynorm: H2O at 2 μM; for Peak emission wavelength λmax em(nm): excited at the longest absorption maxima; for Relative fluorescence Emission Intensitynorm: normalized fluorescence intensity; for Fluorescence quantum yield (Φ): Rhodamine 6G as a standard (Φ = 0.86 in water)
Method: Fluorescence emission spectra were obtained at 20° C. using a JASCO FP-6500 spectrofluorometer, a 10 mM stock solution prepared by dissolving an indolizino[3,2-c]quinoline compound in DMSO was diluted in a solvent. […] Absorption spectra were recorded at room temperature using a Perkin Elmer Lamda 20 UV/VIS spectrometer. […]
Further, the compounds (excluding Entry #51-57, etc.) of Formula 1 were subjected to spectrum analyses in various solvents, and the results are shown in Tables 6 and 7, and FIGS. 5C and 5D.

SMILES | quantum yield (Φ) (DW, standard Rhodamine 6G) | quantum yield (Φ) (EtOH, standard Coumarin 153) | Fluorescence Emission Intensity | Peak emission wavelength λmax em(nm) | Relative fluorescence Emission Intensitynorm | also measured
CCOC(=O)c1c2c3ccccc3nc(-c3cccc(Cl)c3)c2n2ccccc12 [compound 27] | 0.073 | 0.318 | 98.9 | 474 | 0.42 | 
CCOC(=O)c1c2c3ccccc3nc(-c3cccc(F)c3)c2n2ccccc12 [compound 28] |  |  | 211.7 | 476 | 0.91 | Absorption coefficient (cm^−1M^−1): 10780 cm^−1M^−1; Absorption wavelength λex(nm): 369 nm; Emission wavelength λem(nm): 476 nm; λem (nm) (DMF): 470 nm; λem (nm) (DMSO): 472.5 nm; λem (nm) (EtOH): 449.5 nm; λem (nm) (EtOH:CHCl3 = 1:5): 450 nm; λem (nm) (H2O): 476 nm; λem (nm) (MC): 451.5 nm; Fluorescence quantum yield (Φ): 0.061
CCOC(=O)c1c2c3ccccc3nc(-c3cccc(OC)c3)c2n2ccccc12 [compound 29] | 0.120 | 0.365 | 186.2 | 482 | 0.80 | 
CCOC(=O)c1c2c3ccccc3nc(-c3ccc(OC)c(OC)c3)c2n2ccccc12 [compound 30] |  |  | 210.7 | 480.5 | 0.90 | Absorption coefficient (cm^−1M^−1): 10580 cm^−1M^−1; Absorption wavelength λex(nm): 369 nm; Emission wavelength λem(nm): 481 nm; λem (nm) (DMF): 450 nm; λem (nm) (DMSO): 452.5 nm; λem (nm) (EtOH): 444 nm; λem (nm) (EtOH:CHCl3 = 1:5): 447.5 nm; λem (nm) (H2O): 478.5 nm; λem (nm) (MC): 448 nm; Fluorescence quantum yield (Φ): 0.084
COC(=O)c1c2c3ccccc3nc(-c3ccccn3)c2n2ccccc12 [compound 43] | 0.014 | 0.275 |  |  |  | 
COc1ccc(-c2nc3ccccc3c3c(-c4ccc(C(F)(F)F)cc4)c4ccccn4c23)cc1 [compound 47] | 0.050 | 0.597 |  |  |  | 
COc1ccc(-c2nc3ccccc3c3c(-c4ccc(C(C)=O)cc4)c4ccccn4c23)cc1 [compound 48] | 0.105 | 0.050 |  |  |  | 

Second part, led by results:

quantum yield (Φ) (DW, standard Rhodamine 6G) | quantum yield (Φ) (EtOH, standard Coumarin 153) | Fluorescence Emission Intensity | Peak emission wavelength λmax em(nm) | Relative fluorescence Emission Intensitynorm | SMILES | also measured
0.070 | 0.440 | 89.5 | 512 | 0.38 | COc1ccc(-c2nc3ccccc3c3cc4ccc(Br)cn4c23)cc1 [compound 22] | 
0.065 | 0.106 | 82.4 | 518 | 0.35 | Cc1ccc(-c2nc3ccccc3c3cc4ccc(Br)cn4c23)cc1 [compound 23] | 
0.030 | 0.063 | 75.1 | 513 | 0.32 | COc1ccc(-c2nc3ccccc3c3cc4ccc(Br)cn4c23)cc1OC [compound 24] | 
0.009 | 0.031 | 13.4 | 505.5 | 0.06 | Brc1ccc2cc3c4ccccc4nc(-c4ccco4)c3n2c1 [compound 25] | 
0.000 | 0.000 |  |  | 0.00 | CCOC(=O)c1c2c3ccccc3nc(-c3ccc([N+](=O)[O-])cc3)c2n2ccccc12 [compound 26] | Maximum absorption wavelength λmax abs(nm): 384 nm
0.082 | 0.277 |  |  |  | Cc1cccn2c1cc1c3ccccc3nc(-c3cccc4ccccc34)c12 [compound 33] | 
0.073 | 0.365 |  |  |  | Cc1ccc2cc3c4ccccc4nc(-c4cccc5ccccc45)c3n2c1 [compound 35] | 
0.026 | 0.492 |  |  |  | COc1ccc(-c2nc3ccccc3c3c(C#N)c4ccccn4c23)cc1 [compound 39] | 
